Source: patent publication US5583108A, “Vasonatrin peptide and analogs thereof” (Mayo Foundation for Medical Education and Research, priority 1994, dated 1996)

Assays:
[1] = test system: isolated normal canine blood vessels; assay: Organ chamber isometric force: relaxation of phenylephrine-contracted vessel rings; parameters: species or system dog; details: for relaxation: maximal dose (3×10^-6 M); for maximal response, percent change in tension from a contraction to phenylephrine: peptide 3 × 10^-6 M, mean ± SEM
Description: (§1) The results obtained are expressed as the means ±SEM. In organ chamber studies, n equals the number of dogs from which rings were taken. Rings with and without endothelium were studied in parallel, and Student's t-test for unpaired observations was used to determine statistical significance among the responses of rings with and without endothelium and between responses of arteries and veins. In rat studies, the data were analyzed using ANOVA for repeated measures followed by Fisher's least significant difference test when appropriate within the group. Data between groups were analyzed by Student's unpaired t-test. Statistical significance was determined at p<0.05.
Rings cut from femoral, saphenous, renal and pulmonary arteries and veins obtained from random source mongrel dogs (anesthetized with 30 mg/kg pentobarbital sodium intravenously) were suspended for the measurement of isometric force in organ chambers filled with aerated (95% O2 and 5% CO2) modified Krebs-Ringer bicarbonate solution (composition in mM: 118.3 NaCl, 4.7 KCl, 2.5 CaCl2, 1.2 MgSO4, 1.2 KH2 PO4, 25.0 NaHCO3, 0.026 calcium sodium EDTA, and 11.1 dextrose; control solution) at 37° C. In one-half rings, the endothelium was removed by gently rubbing the intimal surface with a cotton swab wetted with control solution. Each ring was stretched to the optimal point on its length-tension curve as determined by the tension developed to norepinephrine (3×10^-7 M) at each level of stretch. The presence of endothelium was determined at the beginning of the experiment by a relaxation to acetylcholine (10^-6 M) during a contraction to norepinephrine at optimal length. The maximal tension of each ring was determined by norepinephrine (10^-4 M). To study responses to ANP, CNP and VNP, the rings were contracted with phenylephrine (10^-6 M). These contractions averaged 30-40% of the maximal contraction to norepinephrine. The peptides were added cumulatively once the contraction had stabilized.
The following commercially available drugs were used: acetylcholine chloride (Sigma Chemical, St. Louis, Mo.), human ANP and human CNP (Peninsula Laboratories, Belmont, Calif.), L-norepinephrine bitartrate (Sigma), phenylephrine bitartrate (Sigma). All drugs were dissolved in distilled water immediately prior to study, and the concentrations are reported as the final molar concentration (M) in the organ chamber.

normal rats = assay: Cardiorenal actions after intravenous bolus in anesthetized normal rats; type: in vivo, Wistar rats; details: for MAP mean arterial pressure / HR heart rate / RAP right atrial pressure / UKV urine potassium excretion / UNaV urine sodium excretion / UV urine volume / UcGMPV urine cGMP volume / PcGMP plasma cGMP: mean ± SEM; for MAP mean arterial pressure: n = 4
Description: as §1
Experiments were conducted in accordance with the Animal Welfare Act. Wistar rats and spontaneously hypertensive rats (SHR) (400 g; Harlan Sprague-Dawley, Indianapolis, Ind.) were anesthetized with Inactin (100 mg/kg; intraperitoneal; BYK Gulden, Konstanz, Germany). The body temperature was maintained between 36° and 38° C. by a heating pad. Tracheostomy was performed; however, the animals were not artificially ventilated. Polyethylene catheters (PE-50; Becton Dickinson Co., Parsippany, N.J.) were placed in the left Jugular vein for infusions of saline and drugs, in the right jugular vein to right atrium to monitor right atrial pressure, and in the carotid artery for the collection of blood samples and to monitor mean arterial pressure. A PE-90 catheter was placed in the bladder for urine collection.
Experiments were conducted in three groups in normal rats: ANP group (n=4), CNP group (n=4), and VNP group (n=4). VNP also was studied in SHR rats (n=4). Intravenous infusions of saline solution (0.9% NaCl) were performed (1 ml/100 gm body weight/hr) through the left jugular vein catheter. After completion of surgery, rats were allowed to stabilize for 30 minutes. In each group, a 15-min baseline period followed. After the baseline period, saline solution (0.9% NaCl) was administered in a bolus fashion (0.1 ml) and was followed by a 15-min period. After the saline period, the peptide (ANP, CNP or VNP) was administered in a bolus fashion (0.1 ml) at 5 μg/kg which was followed by a 15-min period. This was followed by a second bolus (0.1 ml) at 50 μg/kg and a 15-min period. After a 30-min washout, a 15-min recovery period followed. During each experimental period, mean arterial pressure (MAP), heart rate (HR), and right atrial pressure (RAP) were measured. At the midpoint of baseline, second bolus fashion (50 μg/kg) and recovery periods, blood was sampled for plasma cGMP. At the end of each period, urine was measured for volume (UV), and samples were stored for electrolytes and cGMP analysis.
Blood for plasma cGMP analysis was collected into EDTA tubes, immediately placed on ice, and centrifuged at […] at 4° C. Plasma was separated and stored at -20° C. until assay. Urine for cGMP determination was heated to >90° C. before storage. Plasma and urine cGMP were determined by a specific RIA as previously described by A. L. Steiner et al., J. Hypertension, 5 (Suppl. 5) 551-553 (1987).

[2] = normal rats, high dose (50 μg/kg) bolus

Compound: CC[C@H](C)[C@@H]1NC(=O)[C@H](CCCNC(=N)N)NC(=O)[C@H](CC(=O)O)NC(=O)[C@H](CCSC)NC(=O)[C@H](CCCNC(=N)N)NC(=O)CNC(=O)CNC(=O)[C@H](Cc2ccccc2)NC(=O)[C@@H](NC(=O)[C@H](CO)NC(=O)[C@H](CO)NC(=O)[C@H](CCCNC(=N)N)NC(=O)[C@H](CCCNC(=N)N)NC(=O)[C@H](CC(C)C)NC(=O)[C@@H](N)CO)CSSC[C@@H](C(=O)N[C@@H](CC(N)=O)C(=O)N[C@@H](CO)C(=O)N[C@@H](Cc2ccccc2)C(=O)N[C@@H](CCCNC(=N)N)C(=O)N[C@@H](Cc2ccc(O)cc2)C(=O)O)NC(=O)CNC(=O)[C@H](CC(C)C)NC(=O)CNC(=O)[C@H](CO)NC(=O)[C@H](CCC(N)=O)NC(=O)[C@H](C)NC(=O)CNC1=O [ANP, atrial natriuretic peptide]
- relaxation ([1]; femoral and saphenous arteries): no effects
- maximal response, percent change in tension from a contraction to phenylephrine ([1]; femoral artery, with endothelium, phenylephrine 10^-6 M): 10 ± 5%
- maximal response, percent change in tension from a contraction to phenylephrine ([1]; femoral artery, without endothelium): 19 ± 12%
- maximal response, percent change in tension from a contraction to phenylephrine ([1]; femoral vein, with endothelium): 6 ± 3%
- maximal response, percent change in tension from a contraction to phenylephrine ([1]; femoral vein, without endothelium): 4 ± 4%
- relaxation ([1]; femoral veins): no effect
- maximal response, percent change in tension from a contraction to phenylephrine ([1]; pulmonary artery, with endothelium): 60 ± 7%
- maximal response, percent change in tension from a contraction to phenylephrine ([1]; pulmonary artery, without endothelium): 75 ± 8%
- maximal response, percent change in tension from a contraction to phenylephrine ([1]; pulmonary vein, with endothelium): 49 ± 5%
- maximal response, percent change in tension from a contraction to phenylephrine ([1]; pulmonary vein, without endothelium): 16 ± 3%
- maximal response, percent change in tension from a contraction to phenylephrine ([1]; renal artery, with endothelium): 27 ± 6%
- maximal response, percent change in tension from a contraction to phenylephrine ([1]; renal artery, without endothelium): 30 ± 6%
- maximal response, percent change in tension from a contraction to phenylephrine ([1]; renal vein, with endothelium): 12 ± 3%
- maximal response, percent change in tension from a contraction to phenylephrine ([1]; renal vein, without endothelium): 11 ± 4%
- maximal response, percent change in tension from a contraction to phenylephrine ([1]; saphenous artery, with endothelium): 0 ± 0%
- maximal response, percent change in tension from a contraction to phenylephrine ([1]; saphenous artery, without endothelium): 3 ± 3%
- maximal response, percent change in tension from a contraction to phenylephrine ([1]; saphenous vein, with endothelium): 0 ± 0%
- maximal response, percent change in tension from a contraction to phenylephrine ([1]; saphenous vein, without endothelium): 0 ± 0%
- relaxation ([1]; saphenous veins): no effect
- relaxation, % of the contraction to phenylephrine ([1]; systemic arteries (femoral, saphenous and renal)): less than 30%
- natriuretic action (in words) (normal rats; in vivo, rat): potent natriuretic
- change in MAP and RAP (in words) (normal rats; [2]): significant decrease
- change in urine flow, sodium excretion, plasma cGMP and urinary cGMP volume (in words) (normal rats; [2]): increased
- MAP mean arterial pressure (normal rats; normal rats, iv bolus 5 μg/kg, 15-min period): 97 ± 12 mmHg
- HR heart rate (normal rats; normal rats, iv bolus 5 μg/kg): 353 ± 14 beats/min
- RAP right atrial pressure (normal rats; normal rats, iv bolus 5 μg/kg): -2.3 ± 0.8 mmHg
- UKV urine potassium excretion (normal rats; normal rats, iv bolus 5 μg/kg): 10.3 ± 3.5 µmol/min
- UNaV urine sodium excretion (normal rats; normal rats, iv bolus 5 μg/kg): 13.2 ± 3.5 µmol/min
- UV urine volume (normal rats; normal rats, iv bolus 5 μg/kg): 79 ± 10 µL/min
- UcGMPV urine cGMP volume (normal rats; normal rats, iv bolus 5 μg/kg): 605 ± 151 pmol/min
- HR heart rate (normal rats; normal rats, iv bolus 50 μg/kg): 355 ± 19 beats/min
- PcGMP plasma cGMP (normal rats; normal rats, iv bolus 50 μg/kg): 25.7 ± 7.1 pmol/mL
- RAP right atrial pressure (normal rats; normal rats, iv bolus 50 μg/kg): -3.8 ± 0.8 mmHg
- UKV urine potassium excretion (normal rats; normal rats, iv bolus 50 μg/kg): 24.4 ± 8.7 µmol/min
- UNaV urine sodium excretion (normal rats; normal rats, iv bolus 50 μg/kg): 68.2 ± 15.7 µmol/min
- UV urine volume (normal rats; normal rats, iv bolus 50 μg/kg): 341 ± 41 µL/min
- UcGMPV urine cGMP volume (normal rats; normal rats, iv bolus 50 μg/kg): 2580 ± 505 pmol/min
- MAP mean arterial pressure (normal rats; normal rats, recovery period after 30-min washout): 92 ± 11 mmHg
- HR heart rate (normal rats; normal rats, recovery period): 368 ± 23 beats/min
- PcGMP plasma cGMP (normal rats; normal rats, recovery period): 3.2 ± 0.3 pmol/mL
- RAP right atrial pressure (normal rats; normal rats, recovery period): -0.8 ± 0.9 mmHg
- UKV urine potassium excretion (normal rats; normal rats, recovery period): 2.4 ± 0.1 µmol/min
- UNaV urine sodium excretion (normal rats; normal rats, recovery period): 8.9 ± 3.5 µmol/min
- UV urine volume (normal rats; normal rats, recovery period): 48 ± 14 µL/min
- UcGMPV urine cGMP volume (normal rats; normal rats, recovery period): 105 ± 63 pmol/min
- MAP mean arterial pressure (normal rats; normal rats, second iv bolus 50 μg/kg, 15-min period): 69 ± 7 mmHg
